The source of these data is patent publication US12410124B2 (priority 2019, dated 2025).

Where two headings read alike, the source gives them in different places.

One experiment relates to midbrain p-α-s. The experiment in a line: Midbrain p-α-s protein expression in MPTP Parkinson's disease model mouse (western-blotting). It is filed as in vivo. The conditions noted are these: midbrain total protein, GAPDH internal reference, gavage 21 consecutive days after MPTP modeling. On the procedure:
(§1) Neurotoxins can be used to establish PD animal models. Currently, 1-methyl-4-phenyl-1,2,3,6-tetrahydropyridine (MPTP) is the sole synthetic toxin which is recognized to induce PD symptoms in human and non-human primates and in mice. Using MPTP subacute modeling method, C57BL/6J male mice were intraperitoneally injected with MPTP 30 mg/kg, once a day for 5 consecutive days. The experiment animals were divided into blank control group, MPTP model group, and compound treatment group. For the […] compound treatment group, the compound was administrated by gavage for 21 consecutive days after the completion of modeling; for the MPTP model group, the normal saline was administrated by gavage for 21 consecutive days after the completion of modeling; and for the blank control group, the normal saline was first intraperitoneally injected for 5 days, and then administrated by gavage for 21 days.
Alpha-synuclein is an “unfolded protein” in its natural state. It exists in a monomeric form, and participates in the physiological functions such as the release of neurotransmitters, the establishment of synaptic junctions, and the regulation of synaptic plasticity. Under pathological conditions, more than 90% of alpha-synuclein is phosphorylated at serine of position 129 and converted into phosphorylated alpha-synuclein (p-α-s), thereby forming Lewy bodies. The formation of Lewy bodies is one of the main pathological manifestations and pathological mechanisms for Parkinson's disease, and plays an important role in the formation and development of PD. The detection of the p-α-s expression in the midbrain and substantia nigra of PD model mice can evaluate the neuroprotective activity of the compound.
Half of experiment mice in each group were taken to extract the total midbrain protein, and the change in the midbrain P-α-s protein expression was determined by western-blotting using GAPDH as the internal reference. The experiment included blank control group, MPTP model group, positive control group (caffeic acid phenethyl ester, CAPE), prototype control group (styryl sulfone compounds 3B, 3C, 3D, and 3G, whose structures are shown as above), and target compound group.

The test system of the next experiment is hippocampus GFAP. The experiment in a line: Number of hippocampus astrocytes with GFAP positive expression in MPTP Parkinson's disease model mouse (immunohistochemistry). The conditions noted are these: hippocampus, MPTP Parkinson's disease model mouse, immunohistochemistry. It is filed as in vivo. As to the method: as §1
(§2) Neuron-glial cell network homeostasis disorder is an important factor for the selective and progressive death of substantia nigra dopaminergic neurons in PD. In the neurotoxic effect of MPTP, the excessive activations of microglial cells and astrocytes produce a variety of inflammatory cytokines and reactive oxygen species (ROS). These inflammatory factors and ROS amplify their respective toxicities and mediate malignant feedback loop, causing a cascade inflammation response and aggravating the pathological process of PD. CD11b and GFAP are the marker proteins for activations of microglial cells and astrocytes, respectively. Therefore, the effect of the target compounds on the activations of the microglial cells and astrocytes in the substantia nigra, hippocampus, and midbrain areas of MPTP-induced PD mice can be investigated, to explore the mechanism of the anti-PD effect of the target compounds by inhibiting the neuroinflammation.
Half of experiment mice in each group were taken to separate the midbrain after perfusion and fixation. The tissue was trimmed, and the hippocampus area was taken to prepare paraffin sections. The GFAP immunohistochemical staining was performed for the statistics of the change in the number of astrocytes with GFAP positive expression. The experiment included blank control group, MPTP model group, positive control group (caffeic acid phenethyl ester, CAPE), prototype control group (styryl sulfone compounds 3B, 3C, 3D, and 3G, whose structures are shown as above), and target compound group.

Another experiment has as its system primary glial cells. Nature of the experiment: Inhibition of the NO release of primary glial cells induced by LPS. The settings on record: for inhibition at 5 µM / inhibition at 10 µM / inhibition at 20 µM / inhibition at 2 µM: Rattus norvegicus, Glial cell, read-out: NO inhibition (%). The format is cell-based, rat. The source says: Lipopolysaccharide (LPS) is a main component of the cell wall of Gram-negative bacteria. It is a potent inflammatory factor that can directly activate gliocytes, and the activated gliocytes secrete a large amount of inflammation mediators such as tumor necrosis factor, interleukin, and nitric oxide, thus causing inflammatory reactions and oxidative stress reactions and eventually leading to neuronal denaturation and death. In recent years, the targeted injection of LPS into rat substantia nigra or striatum to induce neuroinflammation can successfully establish PD models, which can simulate most of the clinical manifestations and pathological features of PD, and are used for the study on the neuroinflammation mechanism associated with PD. LPS-induced primary glial cell PD inflammation model is suitable for the preliminary anti-neuroinflammation screening for neuroprotective agents. LPS is used to directly activate primary glial cells to simulate the pathogenesis mechanism of neuroinflammation, and the inhibitory activity of the target compounds on the inflammatory response of primary glial cells can be investigated.
The materials were taken from the brain tissue of fetal rat, for primary glial cell culture. At 7 to 10 days of the culture, LPS was added for the activation of nitric oxide (NO) release in glial cells. When a target compound was added, the reduction value for NO content in the cell culture medium was measured, to evaluate the anti-neuroinflammation activity of the compound. The experiment included blank control group, LPS model group, positive control group (caffeic acid phenethyl ester, CAPE), prototype control group (styryl sulfone compounds 3B, 3C, 3D, and 3G, the structures of which compounds are shown as above), and target compound group.

The test system of the next experiment is midbrain pp38. The experiment in a line: Midbrain pp38 protein expression in MPTP Parkinson's disease model mouse (western-blotting). The format is in vivo. The settings on record: midbrain total protein, GAPDH internal reference, gavage 21 days after MPTP modeling. On the procedure:
as §1
The p38 mitogen-activated protein kinase (p38 MAPK) is expressed in both neurons and glial cells, and is the intersection point of neuron-glial cell network information regulations. The activation of p38 signaling pathway is an important initiator of neuronal degeneration, which continuously induces the apoptosis of dopaminergic neurons in multiple ways. It has become a research hotspot for the treatment of PD. Studies have shown that the protective mechanism of CAPE against the death of primary cultured cerebellar granule neurons induced by glutamate lies in inhibiting the activation of p38 phosphorylation and in turn inhibiting the activation of the caspase 3 apoptotic pathway to prevent neuronal apoptosis. Therefore, the MPTP-induced PD mouse model can be used to investigate the inhibitory effect of the target compounds on the activation of p38 phosphorylation on the overall animal level.
Half of experiment mice in each group were taken to extract the total midbrain protein, and the change in the midbrain phosphorylated p38 protein expression was determined by western-blotting using GAPDH as the internal reference. The experiment included blank control group, MPTP model group, positive control group (caffeic acid phenethyl ester, CAPE), prototype control group (styryl sulfone compounds 3B, 3C, 3D, and 3G, whose structures are shown as above), and target compound group.

A further experiment deals with midbrain CD11b. Nature of the experiment: Midbrain CD11b protein expression in MPTP Parkinson's disease model mouse (western-blotting). The format is in vivo. The settings on record: midbrain, MPTP Parkinson's disease model mouse, western-blotting. On the procedure: as §1, §2
[…] The experiment included blank control group, MPTP model group, positive control group (caffeic acid phenethyl ester, CAPE), prototype control group (styryl sulfone compounds 3B, 3C, 3D), and 3G, whose structures are shown as above), and target compound group.

On to `CNC(=O)Oc1ccc(/C=C/S(=O)(=O)CC(Cl)c2ccc(Cl)c([N+](=O)[O-])c2)cc1O` (centres unmarked) [Compound E2-2, (E)-4-{2-[2-chloro-2-(4-chloro-3-nitrophenyl)ethylsulfonyl]ethenyl}-2-hydroxyphenyl-N-methylcarbamate], for which the “Expression (p-α-s/GAPDH)” value in the experiment with midbrain p-α-s is 0.45 ± 0.07. Also, the “Positive cell number (astrocytes with GFAP positive expression)” value (“Positive cell number” below) with hippocampus GFAP was 50 ± 5. Further, in the experiment on primary glial cells, the inhibition at 5 µM turned out to be 20.3 ± 4.73%, the inhibition at 10 µM came out at 36.8 ± 6.11% and the inhibition at 20 µM was found to be 68.9 ± 3.75%. The “Expression (pp38/GAPDH)” value in the experiment with midbrain pp38 is recorded as 0.43 ± 0.06. In the experiment with midbrain CD11b, the “Expression (CD11b/GAPDH)” value is listed as 1.17 ± 0.06.

On to `O=S(=O)(/C=C/c1ccc(O)c(O)c1)Cc1ccc(Cl)cc1` [Compound 3D, (E)-4-{2-[(4-chlorophenyl)mesyl]ethenyl}benzene-1,2-diol, reference compound], for which the “Expression (p-α-s/GAPDH)” value in the experiment on midbrain p-α-s came out at 0.49 ± 0.12. Moreover, in the experiment on hippocampus GFAP, the “Positive cell number” value turned out to be 106 ± 6. In addition, the inhibition at 2 µM in the experiment on primary glial cells (2 μM) was 23.5 ± 8.05%. Moreover, the inhibition at 5 µM in the experiment with primary glial cells (5 μM) was determined as 34.6 ± 4.89%. Further, the inhibition at 10 µM in the experiment on primary glial cells (10 μM) was determined as 74.7 ± 3.32%. In the experiment with midbrain pp38, the “Expression (pp38/GAPDH)” value worked out at 1.00 ± 0.11. In the experiment on midbrain CD11b, the “Expression (CD11b/GAPDH)” value is on record as 1.30 ± 0.10.

For the compound “(E)-2-[(methylamino)methoxy]-4-{2-[1-(4′-nitro-[1,1′-biphenyl]-4-yl)ethylsulfonyl]ethenyl}phenylcarbamate [Compound M1-3]”, the “Expression (p-α-s/GAPDH)” value with midbrain p-α-s is 0.42 ± 0.05. Also, in the experiment with hippocampus GFAP, the “Positive cell number” value came to 57 ± 3. Also, the “NO inhibition (%)” value turned out to be 23.93 ± 4.67% in the experiment with primary glial cells (2 μM), 47.42 ± 4.43% with primary glial cells (5 μM) and 73.41 ± 4.83% in the experiment with primary glial cells (10 μM). Besides, the “Expression (pp38/GAPDH)” value in the experiment with midbrain pp38 came to 0.42 ± 0.06. Besides, the “Expression (CD11b/GAPDH)” value in the experiment with midbrain CD11b was 0.84 ± 0.06.

Take `O=S(=O)(/C=C/c1ccc(O)c(O)c1)Cc1ccc(C(F)(F)F)cc1` [Compound 3B, (E)-4-{2-[(4-trifluoromethylphenyl)mesyl]ethenyl}benzene-1,2-diol, reference compound]: in the experiment with midbrain p-α-s, the “Expression (p-α-s/GAPDH)” value is 0.93 ± 0.04. The “Positive cell number” value in the experiment on hippocampus GFAP amounted to 118 ± 8. Besides, the inhibition at 5 µM with primary glial cells (5 μM) is 17.2 ± 4.56%. Besides, the inhibition at 10 µM in the experiment on primary glial cells (10 μM) came out at 38.6 ± 2.13%. For the same compound, the inhibition at 20 µM with primary glial cells (20 μM) was 92 ± 3.01%. Also, the “Expression (pp38/GAPDH)” value with midbrain pp38 is on record as 1.18 ± 0.08. In the experiment with midbrain CD11b, the “Expression (CD11b/GAPDH)” value was 1.31 ± 0.10.

In the case of `C=CCOc1ccc(C/C=C/S(=O)(=O)/C=C/c2ccc(OC(C)=O)c(OC(=O)N(CC=C)CC=C)c2)cc1` [Compound K1-4, 4-{(E)-2-[(E)-3-(4-allyloxyphenyl)prop-1-en-1-yl]sulfonylethenyl}-2-(N,N-diallylcarbamoyloxy)phenyl acetate], the “Expression (p-α-s/GAPDH)” value in the experiment on midbrain p-α-s is 0.45 ± 0.12. The “Positive cell number” value in the experiment on hippocampus GFAP amounted to 71 ± 4. Further, the inhibition at 2 µM in the experiment with primary glial cells (2 μM) is 30.2 ± 4.01%. Further, in the experiment on primary glial cells (5 μM), the inhibition at 5 µM is 53.5 ± 5.52%. In the experiment on primary glial cells (10 μM), the inhibition at 10 µM was found to be 77.4 ± 5.09%. The “Expression (pp38/GAPDH)” value with midbrain pp38 came out at 0.44 ± 0.05. In the experiment on midbrain CD11b, the “Expression (CD11b/GAPDH)” value came to 1.09 ± 0.10.

For the compound `COc1ccc(CC(=O)Oc2ccc(/C(C)=C/S(=O)(=O)/C=C/c3ccc(OC(=O)N(C)C)c(O[Si](C)(C)CCl)c3)cc2)cc1` [Compound P1-7, 4-{(E)-1-[(E)-3-(chloromethyldimethylsiloxy)-4-(N,N-dimethylcarbamoyloxy)styrylsulfonyl]prop-1-en-2-yl}phenyl-2-(4-methoxyphenyl) acetate], the “Expression (p-α-s/GAPDH)” value with midbrain p-α-s is reported as 0.27 ± 0.08. The “Positive cell number” value with hippocampus GFAP came to 49 ± 4. Further, in the experiment with primary glial cells, the inhibition at 5 µM stood at 21.3 ± 4.43%, the inhibition at 10 µM amounted to 41.2 ± 1.95% and the inhibition at 20 µM is 71 ± 3.67%. Further, the “Expression (pp38/GAPDH)” value with midbrain pp38 came out at 0.40 ± 0.04. In addition, the “Expression (CD11b/GAPDH)” value in the experiment on midbrain CD11b is on record as 0.39 ± 0.03.

For the compound `CC(Br)C(Br)COc1cc(/C=C/S(=O)(=O)CCc2ccc(OCC(F)(F)F)cc2)ccc1OC(=O)Nc1ccsc1` (centres unmarked) [Compound K1-3, (E)-2-(2,3-dibromobutoxy)-4-{2-[4-(2,2,2-trifluoroethoxy)phenylethylsulfonyl]ethenyl}phenyl-N-(thien-3-yl)carbamate], the “Expression (p-α-s/GAPDH)” value with midbrain p-α-s turned out to be 0.34 ± 0.10. Also, the “Positive cell number” value in the experiment on hippocampus GFAP is 65 ± 5. Also, the inhibition at 5 µM with primary glial cells (5 μM) turned out to be 33.3 ± 6.71%. The inhibition at 10 µM in the experiment with primary glial cells (10 μM) turned out to be 54.2 ± 4.06%. For the same compound, the inhibition at 20 µM in the experiment with primary glial cells (20 μM) amounted to 81.4 ± 4.29%. The “Expression (pp38/GAPDH)” value with midbrain pp38 came to 0.35 ± 0.06. Moreover, in the experiment on midbrain CD11b, the “Expression (CD11b/GAPDH)” value turned out to be 1.01 ± 0.08.

For `CC(C)N(c1ccc(CCS(=O)(=O)/C=C/c2ccc(OC(=O)N(C)c3ccc(I)cc3)c(OCCOCc3ccccc3)c2)cc1)C(C)C` [Compound A1-3, (E)-2-(2-benzyloxyethoxy)-4-{2-[4-(N,N-diisopropylamino)phenylethylsulfonyl]ethenyl}phenyl-N-(4-iodophenyl)-N-methylcarbamate], the “Expression (p-α-s/GAPDH)” value in the experiment on midbrain p-α-s was found to be 0.56 ± 0.12. The “Positive cell number” value in the experiment with hippocampus GFAP came to 55 ± 3. Further, in the experiment on primary glial cells, the inhibition at 5 µM turned out to be 19.6 ± 3.67%, the inhibition at 10 µM is 43.2 ± 2.36% and the inhibition at 20 µM came to 62.1 ± 4.73%. In addition, the “Expression (pp38/GAPDH)” value in the experiment with midbrain pp38 worked out at 0.27 ± 0.08. Besides, the “Expression (CD11b/GAPDH)” value in the experiment with midbrain CD11b was determined as 1.12 ± 0.06.

What is called inhibition is the change of the read-out against control, counted positive when it falls.
